# Laboratory results published in article PMC9605497, “Potential of Epidermal Growth Factor-like Peptide from the Sea Cucumber Stichopus horrens to Increase the Growth of Human Cells: In Silico Molecular Docking Approach” (Marine Drugs, 2022).
# Test system: EGF/PDGF pathway genes
# Experiment: qPCR array of EGF/PDGF pathway genes
# Format: cell-based, human
# Design: key to expression class: +: Maximum expression; −: Minimum expression; unc.: Unchanged
# Conditions: 10 nM, 4 h; for fold change: vs serum-free medium
# Experimental: Cells were seeded at 80,000 cells per well of 24-well plates in 400 µL of complete growth medium. Cells were grown in MEM basal medium supplemented with 10% FBS and 1% antibiotic–antimycotic in a humidified incubator at 37 °C, equilibrated with 5% CO2. After 24 h of culture, the medium was removed, washed once with PBS, replaced with serum-free medium and left to culture for another 16 h. Medium was removed and replaced with corresponding treatment medium each in triplicates; 10 nM and 50 nM of Sh-EGFl-1, 10 nM and 50 nM of rhEGF were used as a positive control and serum-free medium was used as a negative control. Cells were harvested after 4 h. Medium was removed and 200 μL of Trizol reagent (Thermo Scientific, Waltham, MA, USA) was immediately added.
# RNA extraction was performed according to Trizol reagent manufacturer’s protocol. An elution volume of 15 μL RNase-free water was added before the concentration and purity were determined using NanoDrop.
# A total of 100 ng RNA was used initially for the cDNA synthesis reaction. The reaction was carried out according to RT^2 First Strand Kit’s protocol (Qiagen, Venlo, Netherlands). Genomic DNA was removed according to the manufacturer’s protocol prior to cDNA strand generation.
# The 10 μL cDNA of human skin cells was diluted with 91 μL prior to qPCR reaction. Primer pairs of 84 genes involved in the EGF pathway, five housekeeping genes such as ribosomal protein large, P0 (RPL0), glyceraldehyde-3-phosphate-dehydrogenase (GAPDH), beta-actin (ACTB), beta-2-microglobulin (B2M) and hypoxanthine phosphoribosyltransferase 1 (HPRT1), one positive control gene for genomic DNA contamination, three reverse transcription control genes and three PCR-positive controls were included in the Qiagen PAHS-040ZA qPCR array plate (Qiagen, Venlo, Netherlands). A list of all genes analyzed in this study is available in Supplementary Materials Table S7. The mixture reaction was prepared according to the protocol and run using BioRad CFX96TM. Samples of 10 nM rhEGF and 10 nM Sh-EGFl-1 were prepared in duplicates. The following thermal profile was applied: 1 cycle at 95 °C for 10 min, 40 cycles at 95 °C for 15 s, 60 °C for 1 min, with the ramp rate from 95 °C to 60 °C was set at 1 °C every second. The data were then analyzed through Qiagen web portal. Data for serum-free medium were selected as a control group and the differences in gene expression between control and treatment groups were calculated using the 2^(−delta delta CT) method. The difference, known as fold change, was obtained from the delta delta CT values, which are the genes of interest and the average housekeeping genes, followed by the delta delta CT (delta CT (treatment group)—delta CT (control group)).
# [1] = IKBKB (IKK), PLC gamma signaling
# [2] = PLCG1 (PLC), PLC gamma signaling
# [3] = PPP2CA (TSC2), PLC gamma signaling
# [4] = RASA1 (p120GAP), MAPK signaling
# [5] = RPS6KA5 (p70S6K), MAPK signaling
# [6] = RPS6KA5 (p70S6K), PI3K signaling
# [7] = RPS6KA5 (p70S6K), PLC gamma signaling
# [8] = RPS6KB1 (p70S6K), MAPK signaling
# [9] = RPS6KB1 (p70S6K), PI3K signaling
# [10] = RPS6KB1 (p70S6K), PLC gamma signaling
substance,measurement,setting,value
"H-MNSDSECPLSHDGYCLHDGVCMYIEALDKYACNCVVGYIGERCQYRDLKWWELR-OH (disulfide) [rhEGF, Recombinant human EGF purchased from Thermo Scientific, reference compound]","gene expression profile, EGF/PDGF pathway",qPCR array heat map,opposite gene expression profile
same,expression class,"AKT1, PI3K signaling",−
same,fold change,"AKT1, PI3K signaling",(0.69)
same,expression class,"AKT3, PI3K signaling",−
same,fold change,"AKT3, PI3K signaling",(0.87)
same,expression class,"ATF1, MAPK signaling",−
same,fold change,"ATF1, MAPK signaling",(0.87)
same,expression class,"ATF2, MAPK signaling",−
same,fold change,"ATF2, MAPK signaling",(0.67)
same,expression class,"CASP3, MAPK signaling",−
same,fold change,"CASP3, MAPK signaling",(0.70)
same,expression class,"CASP9, MAPK signaling",−
same,fold change,"CASP9, MAPK signaling",(0.63)
same,expression class,"CBL, MAPK signaling",−
same,fold change,"CBL, MAPK signaling",(0.96)
same,expression class,"CCND1, PI3K signaling",−
same,fold change,"CCND1, PI3K signaling",(0.83)
same,expression class,"DUSP1, MAPK signaling",−
same,fold change,"DUSP1, MAPK signaling",(0.50)
same,expression class,"DUSP6, MAPK signaling",−
same,fold change,"DUSP6, MAPK signaling",(0.74)
same,expression class,"E1F4E, PI3K signaling",+
same,fold change,"E1F4E, PI3K signaling",(1.24)
same,expression class,"ELK1, JAK-STAT signaling",−
same,fold change,"ELK1, JAK-STAT signaling",(0.77)
same,expression class,"FOS, JAK-STAT signaling",−
same,fold change,"FOS, JAK-STAT signaling",(1.02)
same,expression class,"GAB1, PI3K signaling",+
same,fold change,"GAB1, PI3K signaling",(0.88)
same,expression class,"GRB2, PI3K signaling",−
same,fold change,"GRB2, PI3K signaling",(0.76)
same,expression class,"GSK3A, PI3K signaling",−
same,fold change,"GSK3A, PI3K signaling",(0.75)
same,expression class,"GSK3B, PI3K signaling",−
same,fold change,"GSK3B, PI3K signaling",(0.84)
same,expression class,"HRAS, MAPK signaling",−
same,fold change,"HRAS, MAPK signaling",(0.62)
same,expression class,"IKBKB (IKK), PI3K signaling",−
same,fold change,"IKBKB (IKK), PI3K signaling",(0.73)
same,expression class,[1],−
same,fold change,[1],(0.73)
same,expression class,"IKBKB, MAPK signaling",−
same,fold change,"IKBKB, MAPK signaling",(0.73)
same,expression class,"JAK1, JAK-STAT signaling",−
same,fold change,"JAK1, JAK-STAT signaling",(0.77)
same,expression class,"JUN, JAK-STAT signaling",unc.
same,fold change,"JUN, JAK-STAT signaling",(0.98)
same,expression class,"MAP2K1 (MEK1), MAPK signaling",−
same,fold change,"MAP2K1 (MEK1), MAPK signaling",(0.74)
same,expression class,"MAP2K4 (MKK4), MAPK signaling",−
same,fold change,"MAP2K4 (MKK4), MAPK signaling",(0.51)
same,expression class,"MAP2K7 (MKK7), MAPK signaling",+
same,fold change,"MAP2K7 (MKK7), MAPK signaling",(0.95)
same,expression class,"MAP3K2 (MEKK2), MAPK signaling",−
same,fold change,"MAP3K2 (MEKK2), MAPK signaling",(0.82)
same,expression class,"MAPK1 (ERK2), MAPK signaling",−
same,fold change,"MAPK1 (ERK2), MAPK signaling",(0.76)
same,expression class,"MAPK3 (ERK1), MAPK signaling",−
same,fold change,"MAPK3 (ERK1), MAPK signaling",(0.79)
same,expression class,"MAPK8, MAPK signaling",−
same,fold change,"MAPK8, MAPK signaling",(0.73)
same,expression class,"MAPK9, MAPK signaling",−
same,fold change,"MAPK9, MAPK signaling",(0.54)
same,expression class,"MAPK10, MAPK signaling",+
same,fold change,"MAPK10, MAPK signaling",(1.24)
same,expression class,"MKNK1, MAPK signaling",−
same,fold change,"MKNK1, MAPK signaling",(0.54)
same,expression class,"NFATC3, MAPK signaling",−
same,fold change,"NFATC3, MAPK signaling",(0.96)
same,expression class,"NFKB, PI3K signaling",−
same,fold change,"NFKB, PI3K signaling",(0.90)
same,expression class,"NFKB, PLC gamma signaling",−
same,fold change,"NFKB, PLC gamma signaling",(0.90)
same,expression class,"P13KCA, PI3K signaling",−
same,fold change,"P13KCA, PI3K signaling",(1.08)
same,expression class,"PDPK1 (PDK1), PI3K signaling",−
same,fold change,"PDPK1 (PDK1), PI3K signaling",(0.86)
same,expression class,"PIK3R1, PI3K signaling",−
same,fold change,"PIK3R1, PI3K signaling",(0.80)
same,expression class,"PIK3R2, PI3K signaling",−
same,fold change,"PIK3R2, PI3K signaling",(0.75)
same,expression class,[2],−
same,fold change,[2],(0.89)
same,expression class,[3],−
same,fold change,[3],(0.69)
same,expression class,"PRKCA, PLC gamma signaling",−
same,fold change,"PRKCA, PLC gamma signaling",(0.78)
same,expression class,"RAP1A, MAPK signaling",−
same,fold change,"RAP1A, MAPK signaling",(0.80)
same,expression class,[4],−
same,fold change,[4],(0.83)
same,expression class,"RHOA, Rho signaling",−
same,fold change,"RHOA, Rho signaling",(0.84)
same,expression class,[5],unc.
same,fold change,[5],(0.75)
same,expression class,[6],unc.
same,fold change,[6],(0.75)
same,expression class,[7],unc.
same,fold change,[7],(0.75)
same,expression class,[8],−
same,fold change,[8],(0.68)
same,expression class,[9],−
same,fold change,[9],(0.68)
same,expression class,[10],−
same,fold change,[10],(0.68)
same,expression class,"SHC1, MAPK signaling",−
same,fold change,"SHC1, MAPK signaling",(0.80)
same,expression class,"SHC1, PI3K signaling",−
same,expression class,"SRC, JAK-STAT signaling",+
same,fold change,"SRC, JAK-STAT signaling",(1.16)
same,expression class,"STAT3, JAK-STAT signaling",−
same,fold change,"STAT3, JAK-STAT signaling",(0.89)
same,expression class,"STAT5, JAK-STAT signaling",−
same,fold change,"STAT5, JAK-STAT signaling",(0.89)
same,expression class,"TP53, MAPK signaling",unc.
same,fold change,"TP53, MAPK signaling",(0.82)
same,expression class,"TP53, PI3K signaling",unc.
same,fold change,"TP53, PI3K signaling",(0.82)
